The values below are quoted from earlier work in publication PMC4512625, “Critical role of the SPAK protein kinase CCT domain in controlling blood pressure” (Human Molecular Genetics, 2015).

The subject of data set [1] is NKCC1 in the hypothalamic paraventricular nucleus. The note with it: intracranial administration, spontaneously hypertensive rats. The text has this:
The altered shape of the arterial pressure waveform in our […] mice (Fig. 5B) is consistent with increased vascular compliance and reduced wave reflection in the periphery as compared with the wild-type animals. This may be explained in part by a diminished cardiac output arising from possible reductions in cardiac contractility owing to loss of NKCC1 activity in the heart ([49]) (Fig. 2B) and the lower heart rates of the […] mice (Fig. 5A), because augmentation is negatively correlated with heart rate in humans ([50]). It has also been previously shown that […] ...

Data set [2] relates to human OSR1 CCT domain, Leu473 to Ala. The note with it: mutant versus wild type. The text has this: Consistent with this, mutation of Leu473 to Ala reduced binding of OSR1 to RFXI WNK4 peptide over 100-fold ([40]).

On to `CCCCNc1cc(C(=O)O)cc(S(N)(=O)=O)c1Oc1ccccc1` [bumetanide], for which, in data set [1], the heart rate entry is recorded as “lower their heart rates” and the sympathetic vasomotor tone result is “reduce sympathetic vasomotor tone”.
As for “GRFQVT [RFXI WNK4 peptide, RFXI motif-containing peptide derived from WNK4, complexed to the human OSR1 CCT domain]”, the “reduction of binding of OSR1 to RFXI WNK4 peptide by mutation of Leu473 to Ala” value in data set [2] is given as “over 100 fold”.
